Here are results for 6 molecules from PubChem BioAssay AID2060910 (Molecular Pharmacology Branch, DTP, NCI, 2025).

The test system of the assay is 242566-281-R-J2-PDC complex spheroid viability. The assay is described as follows: Anticancer human tumor 242566-281-R-J2-PDC patient-derived pancreatic carcinoma cell line growth inhibition [RAS]. Particulars: for viability, T/C: stronger effect = lower value. The method, boiled down:
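Multi-cell-type spheroids: tumor cells plus HUVEC endothelial cells and mesenchymal stem cells. RAS-pathway inhibitors were combined with targeted agents, each dosed in half-log steps down from clinical Cmax, or from 10 microM when Cmax was unknown.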

Where [1] appears, read: curve of first compound, second compound 0.0316 µM.
The mark [2] stands for this setting: curve of first compound, second compound 0.1 µM.
[3] abbreviates: curve of first compound, second compound 0.316 µM.
Setting [4] is: curve of first compound, second compound 1 µM.
[5] abbreviates: curve of first compound, second compound 3.16 µM.
Where [6] appears, read: curve of first compound, second compound 10 µM.
Where [7] appears, read: second compound 0.0316 µM, first compound 0.0316 µM.
Where [8] appears, read: second compound 0.0316 µM, first compound 0.1 µM.
Where [9] appears, read: second compound 0.0316 µM, first compound 0.316 µM.
Setting [10] is: second compound 0.0316 µM, first compound 1 µM.
[11] abbreviates: second compound 0.0316 µM, first compound 3.16 µM.
Setting [12] is: second compound 0.0316 µM, first compound 10 µM.
Where [13] appears, read: second compound 0.1 µM, first compound 0.0316 µM.
The mark [14] stands for this setting: second compound 0.1 µM, first compound 0.1 µM.
Setting [15] is: second compound 0.1 µM, first compound 0.316 µM.
[16] abbreviates: second compound 0.1 µM, first compound 1 µM.
The mark [17] stands for this setting: second compound 0.1 µM, first compound 3.16 µM.
Setting [18] is: second compound 0.1 µM, first compound 10 µM.
Setting [19] is: second compound 0.316 µM, first compound 0.0316 µM.
[20] abbreviates: second compound 0.316 µM, first compound 0.1 µM.
The mark [21] stands for this setting: second compound 0.316 µM, first compound 0.316 µM.
Setting [22] is: second compound 0.316 µM, first compound 1 µM.
[23] abbreviates: second compound 0.316 µM, first compound 3.16 µM.
The mark [24] stands for this setting: second compound 0.316 µM, first compound 10 µM.
[25] abbreviates: second compound 1 µM, first compound 0.0316 µM.
[26] abbreviates: second compound 1 µM, first compound 0.1 µM.
[27] abbreviates: second compound 1 µM, first compound 0.316 µM.
Setting [28] is: second compound 1 µM, first compound 1 µM.
[29] abbreviates: second compound 1 µM, first compound 3.16 µM.
The mark [30] stands for this setting: second compound 1 µM, first compound 10 µM.
Where [31] appears, read: second compound 3.16 µM, first compound 0.0316 µM.
The mark [32] stands for this setting: second compound 3.16 µM, first compound 0.1 µM.
The mark [33] stands for this setting: second compound 3.16 µM, first compound 0.316 µM.
The mark [34] stands for this setting: second compound 3.16 µM, first compound 1 µM.
Setting [35] is: second compound 3.16 µM, first compound 3.16 µM.
The mark [36] stands for this setting: second compound 3.16 µM, first compound 10 µM.
Setting [37] is: second compound 10 µM, first compound 0.0316 µM.
Setting [38] is: second compound 10 µM, first compound 0.1 µM.
The mark [39] stands for this setting: second compound 10 µM, first compound 0.316 µM.
The mark [40] stands for this setting: second compound 10 µM, first compound 1 µM.
Setting [41] is: second compound 10 µM, first compound 3.16 µM.
The mark [42] stands for this setting: second compound 10 µM, first compound 10 µM.
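Also: spheroids exposed to compound for 7 days before readout.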
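For viability, T/C in this document: 100% = DMSO vehicle control wells.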

`C#Cc1c(F)ccc2cc(O)cc(-c3ncc4c(N5CC6CCC(C5)N6)nc(OCC56CCCN5CC(F)C6)nc4c3F)c12` (stereo not given): the viability, T/C (commonly the result in the treated group divided by that in the control group, in per cent) is, setting by setting: (compound 0.0316 µM) 84.1% [middle of 8 runs]; (compound 0.1 µM) 80.2% [middle of 8 runs]; (compound 0.316 µM) 71.4% [middle of 8 runs]; (compound 3.16 µM) 53.9% [middle of 8 runs]; (compound 10 µM) 49.6% [middle of 8 runs].
`CC(=O)OC12COC1CC(O)C1(C)C(=O)C(O)C3=C(C)C(OC(=O)C(O)C(NC(=O)OC(C)(C)C)c4ccccc4)CC(O)(C(OC(=O)c4ccccc4)C21)C3(C)C` (stereo not given): the viability, T/C reads like this: (compound 0.0316 µM) 54.6% [middle of 4 runs]; (compound 0.316 µM) 47.6% [middle of 4 runs]; (compound 1 µM) 43.5% [middle of 4 runs]; (compound 3.16 µM) 51.3% [middle of 4 runs].
As for `CC1(O)CCCC1n1c(=O)c(C(F)F)cc2cnc(NC3CCN(S(C)(=O)=O)CC3)nc21` (stereo not given) + C#Cc1c(F)ccc2cc(O)cc(-c3ncc4c(N5CC6CCC(C5)N6)nc(OCC56CCCN5CC(F)C6)nc4c3F)c12, the IC50 (usually the point on the concentration scale where inhibition reaches its midpoint) under setting [1] was greater than 10 µM; the IC50 under setting [2] stood at 8.85 µM; the IC50 under setting [3] is 6.91 µM; the IC50 under setting [4] was 4.97 µM; the IC50 under setting [5] amounted to 3.87 µM; the IC50 under setting [6] was found to be 4.08 µM. Moreover, the viability, T/C by setting is: under setting [7], 90.6%; under setting [8], 113%; under setting [9], 94.6%; under setting [10], 81.5%; under setting [11], 108%; under setting [12], 51.5%. The viability, T/C by setting is: under setting [13], 80.4%; under setting [14], 83.9%; under setting [15], 78.7%; under setting [16], 88%; under setting [17], 97.6%; under setting [18], 45.7%. Further, the viability, T/C under setting [19] was 69.3%; the viability, T/C under setting [20] was 75.5%; the viability, T/C under setting [21] was 60.7%; the viability, T/C under setting [22] was 69.8%; the viability, T/C under setting [23] was 94.6%; the viability, T/C under setting [24] was 38.9%. In addition, the viability, T/C under setting [25] is 66.3%; the viability, T/C under setting [26] was 63.2%; the viability, T/C under setting [27] was 65.4%; the viability, T/C under setting [28] was 56.6%; the viability, T/C under setting [29] was 70.5%; the viability, T/C under setting [30] was 27.5%. For the same molecule, the viability, T/C is, setting by setting: under setting [31], 51%; under setting [32], 54.6%; under setting [33], 48%; under setting [34], 49.1%; under setting [35], 69%; under setting [36], 29.7%. The viability, T/C by setting is: under setting [37], 52.3%; under setting [38], 57.2%; under setting [39], 61%; under setting [40], 56%; under setting [41], 66.8%; under setting [42], 19.5%.
Turning to `Cc1nc(N2CCC3(CC2)COC(C)C3N)c(CO)nc1Sc1ccnc(N)c1Cl` (stereo not given) + C#Cc1c(F)ccc2cc(O)cc(-c3ncc4c(N5CC6CCC(C5)N6)nc(OCC56CCCN5CC(F)C6)nc4c3F)c12, the half-inhibitory concentration (IC50) under setting [1] was found to be 0.608 µM; the concentration for half-maximal inhibition (IC50) under setting [2] is 0.336 µM; the IC50 under setting [3] amounted to 0.184 µM; the IC50 under setting [4] is 0.0612 µM; the IC50 under setting [5] was less than 0.0316 µM; the IC50 under setting [6] was less than 0.0316 µM. Moreover, the viability, T/C is 69.6% under setting [7]; 81% under setting [8]; 62.2% under setting [9]; 40.9% under setting [10]; 37.8% under setting [11]; 43.5% under setting [12]. Moreover, the viability, T/C is 80.3% under setting [13]; 65.8% under setting [14]; 51.1% under setting [15]; 43% under setting [16]; 34.5% under setting [17]; 43% under setting [18]. The viability, T/C by setting is: under setting [19], 69.9%; under setting [20], 54.3%; under setting [21], 47.1%; under setting [22], 38.9%; under setting [23], 37%; under setting [24], 36.5%. The viability, T/C by setting is: under setting [25], 58.1%; under setting [26], 45.8%; under setting [27], 36.6%; under setting [28], 34.6%; under setting [29], 31.2%; under setting [30], 41.1%. The viability, T/C reads like this: under setting [31], 48.4%; under setting [32], 49.9%; under setting [33], 40.9%; under setting [34], 35.1%; under setting [35], 42.8%; under setting [36], 44.5%. Also, the viability, T/C runs as follows: under setting [37], 50%; under setting [38], 46.6%; under setting [39], 39.4%; under setting [40], 42.9%; under setting [41], 41.4%; under setting [42], 38.4%.
As for `CCn1c(-c2cc(N3CCN(C)CC3)cnc2C(C)OC)c2c3cc(ccc31)-c1csc(n1)CC(NC(=O)C1CC1C)C(=O)N1CCCC(N1)C(=O)OCC(C)(C)C2` (stereo not given), the viability, T/C runs as follows: (compound 0.000949 µM) 93.7% [middle of 8 runs]; (compound 0.003 µM) 76.4% [middle of 8 runs]; (compound 0.00949 µM) 49% [middle of 8 runs]; (compound 0.03 µM) 31.3% [middle of 8 runs]; (compound 0.0949 µM) 23.8% [middle of 8 runs]; (compound 0.3 µM) 21.6% [middle of 8 runs]. Besides, under “compound alone, run of 07/09/2024”, the half-maximal inhibitory concentration (IC50) was 9.34 nM [middle of 8 runs].
`CC(C)NCC(C(=O)N1CCN(c2ncnc3c2C(C)CC3O)CC1)c1ccc(Cl)cc1` (stereo not given): the viability, T/C was 104% [middle of 4 runs] (compound 0.0316 µM), 106% [middle of 4 runs] (compound 0.1 µM), 103% [middle of 4 runs] (compound 0.316 µM) and 101% [middle of 4 runs] (compound 1 µM). Moreover, under “curve of compound”, the IC50 was greater than 10 µM.
